This passage reports Emax results from patent publication US10136647B2, “Synergistic Bacillus thuringiensis subsp. kurstaki and chlorantraniliprole mixtures for diamondback moth, beet armyworm, sugarcane borer, soybean looper and corn earworm control” (priority 2015, dated 2018).

Molecules are shown by their SMILES. Where two headings read alike, the source gives them in different places.

The test system of assay [1] is diamondback moth larvae. Description: Laboratory leaf dip test on diamondback moth larvae. The class given is in vivo. The conditions noted are these: Plutella xylostella, foliar, 24 h after treatment, Btk 0.54 ppm, chlorantraniliprole 0.0009 ppm, read-out: % Efficacy. Here is the method:
The following examples illustrate the synergy of Bacillus thuringiensis subsp. kurstaki and chlorantraniliprole when controlling diamondback moth, beet armyworm, sugarcane borer, soybean looper, and corn earworm. DiPel® DF was used as the source of Bacillus thuringiensis subsp. kurstaki and Coragen® was used as the source of chlorantraniliprole. The present invention is not limited to the products or formulation types used herein. In each example below, the studies were conducted as follows.
For these tests, standardized laboratory leaf dip methods were used to inoculate plant material with treatment(s). Dry, treated leaves were placed into Petri dishes (100×25 mm) containing filter paper wetted with 500 μl of distilled H2O (“dH2O”). […] Synergy ratings were calculated for each test. […]
% Cexp=A+B−(AB/100), where % Cexp is the expected efficacy and “in which A and B are the control levels given by the single [insecticides]. […] Adopting a conservative approach, Applicant determined synergy to be present at ratios of >1.15. […]
In order to determine synergy, rates below normal field rate ranges must be used. If normal field rate ranges are used, all of the larvae would die (combining a lethal or near lethal dose of Bacillus thuringiensis subsp. kurstaki with a lethal dose of chlorantraniliprole would most likely lead to larvae death) in every treatment and synergy would not be able to be determined. […]

Assay [2] deals with cabbage looper larvae. Description: Laboratory leaf dip test on cabbage looper larvae. The settings on record: Trichoplusia ni, foliar, Btk 0.54 ppm, chlorantraniliprole 0.0009 ppm, read-out: % Efficacy. The class given is in vivo. As for the experimental part:
(§1) DiPel® DF was used as the source of Bacillus thuringiensis subsp. kurstaki and Coragen® was used as the source of chlorantraniliprole. The present invention is not limited to the products or formulation types used herein. In each example below, the studies were conducted as follows.
(§2) For these tests, standardized laboratory leaf dip methods were used to inoculate plant material with treatment(s). Dry, treated leaves were placed into Petri dishes (100×25 mm) containing filter paper wetted with 500 μl of distilled H2O (“dH2O”). Each dish was then infested with between 5 and 10 larvae, dependent on species. Efficacy ratings were taken at specified intervals. Synergy ratings were calculated for each test.
(§3) % Cexp=A+B−(AB/100), where % Cexp is the expected efficacy and “in which A and B are the control levels given by the single [insecticides]. If the ratio between the experimentally observed efficacy of the mixture Cobs and the expected efficacy of the mixture is greater than 1, synergistic interactions are present in the mixture.” (Gisi, Synergisitic Interaction of Fungicides in Mixtures, The American Phytopathological Society, 86:11, 1273-1279,1996). Adopting a conservative approach, Applicant determined synergy to be present at ratios of >1.15.

Assay [3] has as its system southwestern corn borer larvae. Description: Laboratory leaf dip test on southwestern corn borer larvae. The class given is in vivo. The conditions noted are these: foliar, 72 h after treatment, Btk 0.54 ppm, chlorantraniliprole 0.0009 ppm, read-out: % Efficacy. As for the experimental part:
as §1, §2, §3

Assay [4] has as its system soybean looper larvae. As to the kind of experiment: Laboratory leaf dip test on soybean looper larvae. The class given is in vivo, Chrysodeixis includens. The settings on record: foliar, Btk 0.54 ppm, chlorantraniliprole 0.045 μg/ml, read-out: % Efficacy. As for the experimental part: as §1, §2, §3
In this study, the response of soybean looper larvae to Bacillus thuringiensis subsp. kurstaki and chlorantraniliprole was observed.
For this species, the same ppm of Bacillus thuringiensis subsp. kurstaki was used, but 0.045 μg/ml was used for chlorantraniliprole.

The subject of assay [5] is sugarcane borer larvae. Description: Laboratory leaf dip test on sugarcane borer larvae. The class given is in vivo. The conditions noted are these: Diatraea saccharalis, foliar, Btk 0.54 ppm, chlorantraniliprole 0.0009 ppm, read-out: % Efficacy. As for the experimental part: as §1, §2, §3
In assay [6] the test system is beet armyworm larvae. Description: Laboratory leaf dip test on beet armyworm larvae. The class given is in vivo. The conditions noted are these: Spodoptera exigua, foliar, Btk 0.54 ppm, chlorantraniliprole 0.0009 ppm, read-out: % Efficacy. Here is the method:
as §1, §2, §3

Assay [7] relates to corn earworm larvae. Description: Laboratory leaf dip test on corn earworm larvae. The class given is in vivo. The settings on record: Helicoverpa zea, foliar, Btk 0.54 ppm, chlorantraniliprole 0.0009 ppm, read-out: % Efficacy. Here is the method:
as §1, §2, §3

For `CNC(=O)c1cc(Cl)cc(C)c1NC(=O)c1cc(Br)nn1-c1ncccc1Cl` [Chlorantraniliprole], the Emax at 0.0009 ppm in assay [1] was 12%; in assay [2] (24 h after treatment) it was 46%; in assay [2] (48 h after treatment) it was 46%; in assay [3] it was 31%; in assay [5] (24 h after treatment) it was 10%; in assay [5] (48 h after treatment), 10%. Further, the Emax at 0.0009 ppm in assay [5] (72 h after treatment) amounted to 19%; in assay [6] (24 h after treatment), 7%; in assay [6] (48 h after treatment) it was 17%; in assay [6] (72 h after treatment) it was 30%; in assay [7] (24 h after treatment) it was 7%; in assay [7] (48 h after treatment) it was 20%. Also, in assay [7] (72 h after treatment), the Emax at 0.0009 ppm is 20%. Moreover, the results for the Emax at 0.045 µg/mL in assay [4] (24 h after treatment), in assay [4] (48 h after treatment) and in assay [4] (72 h after treatment) were 7%, 10% and 17%, respectively.
